ChEMBL document CHEMBL5725310, “Substituted imidazo[1,5-α]pyridines and imidazo[1,5-α]pyrazines as LSD1 inhibitors” (2017)

Target: Lysine-specific histone demethylase 1A (Homo sapiens, UniProt O60341)
Experiment: Demethylase Biochemical Assay: LANCE LSD1/KDM1A demethylase assay¿10 uL of 1 nM LSD-1 enzyme (ENZO BML-SE544-0050) in the assay buffer (50 mM Tris, pH 7.5, 0.01% Tween-20, 25 mM NaCl, 5 mM DTT) were preincubated for 1 hour at 25° C. with 0.8 uL compound/DMSO dotted in black 384 well polystyrene plates. Reactions were started by addition of 10 uL of assay buffer containing 0.4 uM Biotin-labeled Histone H3 peptide substrate: ART-K(Me1)-QTARKSTGGKAPRKQLA-GGK(Biotin) SEQ ID NO:1 (AnaSpec 64355) and incubated for 1 hour at 25° C. Reactions were stopped by addition of 10 uL 1x LANCE Detection Buffer (PerkinElmer CR97-100) supplemented with 1.5 nM Eu-anti-unmodified H3K4 Antibody (PerkinElmer TRF0404), and 225 nM LANCE Ultra Streptavidin (PerkinElmer TRF102) along with 0.9 mM Tranylcypromine-HCl (Millipore 616431). After stopping the reactions plates were incubated for 30 minutes and read on a PHERAstar FS plate reader (BMG Labtech).

Row | SMILES | IC50 [nM]
1 | COC(=O)N(C)c1ccc(-c2c(-c3ccc(C#N)cc3)cc(OC[C@@H]3CCCN(C)C3)c3cncn23)cn1 | < 50
2 | COC(=O)N(C)c1ccc(-c2c(-c3ccc(C#N)cc3)nc(N3CCC(N(C)C)CC3)c3cncn23)cn1 | < 50
3 | COC(=O)N(C)c1ccc(-c2c(-c3ccc(C#N)cc3)nc(N3CCC(N(C)C)CC3)c3cncn23)cc1F | < 50
